Test results reported in PubChem BioAssay (NCI).
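In this assay, cells in 96-well plates receive the compound at five concentrations for 48 hours. Endpoints are linearly interpolated between the surrounding concentrations. TGI: concentration producing complete growth inhibition.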

Key:
Experiment in all cases: NCI tumour cell line growth inhibition, 48 h
T-47D breast = system: T-47D breast
ACHN renal = system: ACHN renal
CAKI-1 renal = system: CAKI-1 renal
MALME-3M melanoma = system: MALME-3M melanoma
NCI-H23 lung = system: NCI-H23 lung
DU-145 prostate = system: DU-145 prostate
HCC-2998 colon = system: HCC-2998 colon
UACC-62 melanoma = system: UACC-62 melanoma
RXF 393 renal = system: RXF 393 renal
HOP-92 NSCLC = system: HOP-92 NSCLC
U251 CNS = system: U251 CNS
EKVX NSCLC = system: EKVX NSCLC
HOP-62 NSCLC = system: HOP-62 NSCLC
SF-268 CNS = system: SF-268 CNS
SK-MEL-2 melanoma = system: SK-MEL-2 melanoma
SNB-19 CNS = system: SNB-19 CNS
HCT-15 colon = system: HCT-15 colon
MDA-MB-231 breast = system: MDA-MB-231 breast
CCRF-CEM leukemia = system: CCRF-CEM leukemia
MDA-MB-435 = system: MDA-MB-435
K-562 leukemia = system: K-562 leukemia
PC-3 prostate = system: PC-3 prostate
COLO 205 colon = system: COLO 205 colon
NCI-H226 lung = system: NCI-H226 lung
NCI-H460 lung = system: NCI-H460 lung
MOLT-4 leukemia = system: MOLT-4 leukemia
SN12C renal = system: SN12C renal
OVCAR-3 ovarian = system: OVCAR-3 ovarian
A549 NSCLC = system: A549 NSCLC
HT29 colon = system: HT29 colon
SK-MEL-28 melanoma = system: SK-MEL-28 melanoma
SW-620 colon = system: SW-620 colon
MCF7 breast = system: MCF7 breast
786-0 renal = system: 786-0 renal
M14 melanoma = system: M14 melanoma
LOX IMVI melanoma = system: LOX IMVI melanoma
SK-MEL-5 melanoma = system: SK-MEL-5 melanoma
HCT-116 colon = system: HCT-116 colon
SK-OV-3 ovarian = system: SK-OV-3 ovarian
NCI-H522 lung = system: NCI-H522 lung
TK-10 renal = system: TK-10 renal
UACC-257 melanoma = system: UACC-257 melanoma
HL-60(TB) leukemia = system: HL-60(TB) leukemia
OVCAR-8 ovarian = system: OVCAR-8 ovarian
MDA-N = system: MDA-N
OVCAR-4 ovarian = system: OVCAR-4 ovarian
SR leukemia = system: SR leukemia
HS 578T breast = system: HS 578T breast
RPMI-8226 leukemia = system: RPMI-8226 leukemia
OVCAR-5 ovarian = system: OVCAR-5 ovarian
KM12 colon = system: KM12 colon
SF-295 CNS = system: SF-295 CNS
IGROV1 ovarian = system: IGROV1 ovarian
UO-31 renal = system: UO-31 renal
SNB-75 CNS = system: SNB-75 CNS
BT-549 breast = system: BT-549 breast
NCI/ADR-RES ovarian = system: NCI/ADR-RES ovarian
A498 renal = system: A498 renal
SF-539 CNS = system: SF-539 CNS

Measured: TGI

CCOc1cc(C(=O)O)c2c(ccc3ccc(OC)c(OC)c32)c1OC
not listed: A498 renal | SF-539 CNS
> 100 µM: all other assays above

N#C/C=c1/c2ccccc2n2nc3ccccc3c12
59.2 µM: NCI-H23 lung
38 µM: NCI-H522 lung
58.3 µM: IGROV1 ovarian
27.9 µM: ACHN renal
30.5 µM: TK-10 renal
68.3 µM: KM12 colon
16.6 µM: MDA-MB-231 breast
34 µM: SF-268 CNS
58.6 µM: RXF 393 renal
31.5 µM: OVCAR-4 ovarian
37.6 µM: SF-539 CNS
30.9 µM: U251 CNS
40 µM: SNB-19 CNS
70.3 µM: A498 renal
44.4 µM: HOP-62 NSCLC
22.9 µM: SK-OV-3 ovarian
19.8 µM: 786-0 renal
12.1 µM: HCT-116 colon
85.3 µM: COLO 205 colon
not listed: HOP-92 NSCLC | NCI-H226 lung | MOLT-4 leukemia | SNB-75 CNS
> 100 µM: all other assays above
